Experimental findings from PMC7076352 (Pharmaceutics, 2020) are described below.

The test system of data set [1] is CYP2C19. Nature of the data set: in vitro. How it is done:
(§1) (OHBUP-[D6]) and 5 nM 4′-hydroxydiclofenac-[^13C6] (OHDIC-[^13C6]) as internal standards (ISs). […]
(§2) standard addition experiments. Each group included four concentration levels. For the PK […]
(§3) The probe compounds, viz. […]
(§4) chosen after incubating all the recruited substrates. In order to assure the linear relationship […]
(§5) The incubation system was also optimized in terms of substrate concentrations. The substrates concentrations of […]

For data set [2], the system named is CYP2B6. In words: in vitro. The conditions noted are these: for IC50 at 15 min: Sprague-Dawley, rat, pooled rat liver microsomes, pH 7.4, probe bupropion (90 µM, in seven-probe cocktail), IC50 CYP2B6, single components. How it is done:
as §1, §2, §3, §4, §5

Data set [3] concerns CYP2C9. Nature of the data set: in vitro. The procedure: as §1, §2, §3, §4, §5
The subject of data set [4] is CYP2D6. Nature of the data set: in vitro. The procedure:
as §1, §2, §3, §4, §5

Data set [5] relates to CYP3A4. Nature of the data set: in vitro. The procedure: as §1, §2, §3, §4, §5
The target of data set [6] is T1, CYP1A2 (Rattus norvegicus, UniProt P04799).
T1 sequence (P04799 1-513): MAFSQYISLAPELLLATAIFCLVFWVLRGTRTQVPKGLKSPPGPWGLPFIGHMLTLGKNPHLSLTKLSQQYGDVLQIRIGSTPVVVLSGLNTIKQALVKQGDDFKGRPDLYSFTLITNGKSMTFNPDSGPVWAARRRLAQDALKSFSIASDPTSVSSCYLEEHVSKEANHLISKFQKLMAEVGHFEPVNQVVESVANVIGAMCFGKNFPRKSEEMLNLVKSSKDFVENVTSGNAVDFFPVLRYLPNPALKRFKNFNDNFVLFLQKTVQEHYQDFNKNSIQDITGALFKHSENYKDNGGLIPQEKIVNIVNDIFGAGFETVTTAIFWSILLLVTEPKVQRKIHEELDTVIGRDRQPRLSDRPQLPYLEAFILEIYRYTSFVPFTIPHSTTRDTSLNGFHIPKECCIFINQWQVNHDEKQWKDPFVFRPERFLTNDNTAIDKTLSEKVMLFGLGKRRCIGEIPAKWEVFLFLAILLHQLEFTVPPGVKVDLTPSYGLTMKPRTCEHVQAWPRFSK
Nature of the data set: In vitro cocktail CYP450 activity assay in rat liver microsomes, CYP1A2 (phenacetin probe). The procedure: as §1, §2, §3, §4, §5
For orientation: Liver microsomes are vesicles of endoplasmic reticulum, rich in cytochrome P450 enzymes.

In data set [7] the target is T2, CYP2E1 (Rattus norvegicus, UniProt P05182).
Data set [8] concerns the target T2, CYP2E1. The conditions noted are these: IC50 CYP2E1, single components; RLM 0.2 mg/mL, 15 min, triplicate, mean ± SD.
Where [9] appears, read: read-out: IC50 CYP2C19, single components, RLM 0.2 mg/mL, 15 min, triplicate, mean ± SD.
Setting [10] is: read-out: IC50 CYP2B6, single components, RLM 0.2 mg/mL, 15 min, triplicate, mean ± SD.
[11] abbreviates: read-out: IC50 CYP2C9, single components, RLM 0.2 mg/mL, 15 min, triplicate, mean ± SD.
The mark [12] stands for this setting: read-out: IC50 CYP2D6, single components, RLM 0.2 mg/mL, 15 min, triplicate, mean ± SD.
Where [13] appears, read: read-out: IC50 CYP3A4, single components, RLM 0.2 mg/mL, 15 min, triplicate, mean ± SD.
Where [14] appears, read: RLM 0.2 mg/mL, 15 min, triplicate, mean ± SD.
[15] abbreviates: Sprague-Dawley, rat, microsomes, pH 7.4.
[16] abbreviates: IC50 CYP1A2, single components, RLM 0.2 mg/mL, 15 min, triplicate, mean ± SD.
The mark [17] stands for this setting: read-out: IC50 CYP1A2, single components, RLM 0.2 mg/mL, 15 min, triplicate, mean ± SD.
[18] abbreviates: read-out: IC50 CYP2E1, single components, RLM 0.2 mg/mL, 15 min, triplicate, mean ± SD.

Values joined by “and” are separate entries in the source; they are usually repeats but may differ in a detail not shown here. Equal entries are not always repeated. Where two headings read alike, the source gives them in different places.

T2 sequence (P05182 whole entry): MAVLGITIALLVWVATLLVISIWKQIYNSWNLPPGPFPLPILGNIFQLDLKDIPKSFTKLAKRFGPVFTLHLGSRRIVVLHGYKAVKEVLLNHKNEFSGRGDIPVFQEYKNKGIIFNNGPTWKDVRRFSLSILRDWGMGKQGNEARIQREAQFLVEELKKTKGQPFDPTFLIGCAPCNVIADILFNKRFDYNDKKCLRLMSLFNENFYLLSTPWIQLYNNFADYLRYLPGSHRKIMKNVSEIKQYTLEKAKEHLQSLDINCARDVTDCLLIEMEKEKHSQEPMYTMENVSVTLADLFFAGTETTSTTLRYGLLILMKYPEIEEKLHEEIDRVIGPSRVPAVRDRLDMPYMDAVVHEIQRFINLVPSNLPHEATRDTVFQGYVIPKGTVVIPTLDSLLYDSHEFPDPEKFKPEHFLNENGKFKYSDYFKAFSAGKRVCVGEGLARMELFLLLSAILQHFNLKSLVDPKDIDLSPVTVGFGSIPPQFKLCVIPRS

Usually IC50 stands for the concentration that gives 50% inhibition. As to `O=C(O)[C@H]1OC(Oc2cc3oc(-c4ccc(O)cc4)cc(=O)c3c(O)c2OC2O[C@H](CO)[C@@H](O)[C@H](O)[C@H]2O)[C@H](O)[C@@H](O)[C@@H]1O` (some centres unmarked) [A15, 6-hydroxyapigenin-6-O-glucosyl-7-O-glucuronide], the concentration for half-maximal inhibition (IC50) in data set [1] (microsomes) was above 200 µM; in data set [2] (microsomes), above 200 µM; in data set [3] (microsomes), above 200 µM; in data set [4] (microsomes), above 200 µM; in data set [5] (microsomes), above 200 µM; in data set [6] (microsomes), 127 ± 6.55 µM. In data set [7] (microsomes), the IC50 was above 200 µM.

Take kaempferol-3-O-rutinoside [A11]: the 50% inhibitory concentration (IC50) in data set [1] (setting [9]) is above 200 µM; in data set [2] (setting [10]), 17.3 ± 0.96 µM; in data set [3] (setting [11]), 24.9 ± 4.96 µM; in data set [4] (setting [12]), 64.5 ± 7.71 µM; in data set [5] (setting [13]), 16.2 ± 4.3 µM.

Turning to `O=c1c(O)c(-c2ccc(O)cc2)oc2cc(O)cc(O)c12` [A17, kaempferol], the IC50 at 15 min in data set [1] (Sprague-Dawley, rat, pooled rat liver microsomes, pH 7.4, probe omeprazole (1.07 µM, in seven-probe cocktail), IC50 CYP2C19, single components, RLM 0.2 mg/mL, 15 min, triplicate, mean ± SD) is 70.4 ± 1.18 µM; in data set [2] (setting [14]), above 200 µM; in data set [3] (Sprague-Dawley, rat, pooled rat liver microsomes, pH 7.4, probe tolbutamide (18 µM, in seven-probe cocktail), IC50 CYP2C9, single components, RLM 0.2 mg/mL, 15 min, triplicate, mean ± SD), 14.9 ± 4.24 µM; in data set [4] (Sprague-Dawley, rat, microsomes, pH 7.4, IC50 CYP2D6) it was 59.2 ± 1.01 µM; in data set [5] (setting [15]), 117 ± 6.77 µM. Besides, the values for the IC50 in data set [6] (setting [16]) and in data set [8] were 21.5 ± 4.5 µM and 32.5 ± 5.79 µM, respectively.

Turning to `C=C[C@H]1C[N@@]2CC[C@H]1C[C@@H]2[C@@H](O)c1ccnc2ccc(OC)cc12` [QUI, quinidine, reference compound], the IC50 in data set [4] (setting [15]) is […].

For the molecule `C[C@@H]1OC(OC[C@H]2OC(Oc3c(-c4ccc(O)cc4)oc4cc(O)c(OC5O[C@H](CO)[C@@H](O)[C@H](O)[C@H]5O)c(O)c4c3=O)[C@H](O)[C@@H](O)[C@@H]2O)[C@H](O)[C@H](O)[C@H]1O` (some centres unmarked) [A12, 6-hydroxykaempferol-3-O-rutinosyl-6-O-glucoside], the IC50 was above 200 µM in data set [1] (microsomes); above 200 µM in data set [2] (microsomes); above 200 µM in data set [3] (microsomes); 98.6 ± 12.3 µM in data set [4] (microsomes); above 200 µM in data set [5] (microsomes); above 200 µM in data set [6] (microsomes). The molecule also had a concentration for half-maximal inhibition (IC50) in data set [7] (microsomes) above 200 µM.

As for Carthamus tinctorius extract [CTE], the “IC50 CYP2C19” value in data set [1] (microsomes) is above 200 µg/mL. In addition, in data set [2] (microsomes), the “IC50 CYP2B6” value was 58.09 ± 13.41 µg/mL and the “inhibition on CYP2B6 (in words)” value is listed as “moderate inhibition”. In data set [3] (microsomes), the “IC50 CYP2C9” value is 183.30 ± 17.98 µg/mL and the “inhibition on CYP2C9 (in words)” value is given as “weak inhibition”. Moreover, in data set [4] (microsomes), the “IC50 CYP2D6” value worked out at 126.17 ± 17.63 µg/mL and the “inhibition on CYP2D6 (in words)” value is recorded as “weak inhibition”. For the same molecule, the “IC50 CYP3A4” value in data set [5] (microsomes) is above 200 µg/mL. In data set [6] (microsomes), the “IC50 CYP1A2” value came to 138.60 ± 14.36 µg/mL and the “inhibition on CYP1A2 (in words)” value was “weak inhibition”.

As to `O=c1c(O[C@@H]2O[C@H](CO)[C@@H](O)[C@H](O)[C@H]2O[C@@H]2O[C@H](CO)[C@@H](O)[C@H](O)[C@H]2O)c(-c2ccc(O)cc2)oc2cc(O)cc(O)c12` [A14, kaempferol-3-O-sophoroside], the IC50 in data set [1] (microsomes), in data set [2] (microsomes), in data set [3] (setting [11]), in data set [4] (microsomes), in data set [5] (setting [13]) and in data set [6] (setting [17]) was above 200 µM in each case. Besides, the 50% inhibitory concentration (IC50) in data set [7] (setting [18]) was above 200 µM.

On to `O=c1c(O)c(-c2ccc(O)cc2)oc2cc(O)c(O)c(O)c12` [A18, 6-hydroxykaempferol], for which, in data set [2] (setting [14]), the concentration for half-maximal inhibition (IC50) at 15 min is below 5 µM. Also, the IC50 in data set [2] (setting [10]) was 4.42 ± 1.31 µM; in data set [6] (setting [16]), < 5 µM and 0.12 µM; in data set [8] it was < 5 µM and 4.27 µM.

For the molecule notoginseng total saponins [NGTS], the “IC50 CYP2C19” value in data set [1] (microsomes) amounted to 40.85 ± 6.98 µg/mL. Also, the “IC50 CYP2B6” value in data set [2] (microsomes) came out at 43.90 ± 7.91 µg/mL. Also, the “IC50 CYP2C9” value in data set [3] (microsomes) amounted to 9.32 ± 0.56 µg/mL. In data set [4] (microsomes), the “IC50 CYP2D6” value was 12.23 ± 4.25 µg/mL. Also, in data set [5] (microsomes), the “IC50 CYP3A4” value stood at 106.27 ± 14.00 µg/mL. Also, in data set [6] (microsomes), the “IC50 CYP1A2” value is 60.68 ± 2.26 µg/mL.

Consider `O=c1c(O[C@@H]2O[C@H](CO)[C@@H](O)[C@H](O)[C@H]2O)c(-c2ccc(O)cc2)oc2cc(O)cc(O)c12` [A7, kaempferol-3-O-glucoside], for which the IC50 in data set [1] (setting [9]) worked out at 18.5 ± 1.6 µM; in data set [2] (setting [10]) it was 177 ± 4.21 µM; in data set [3] (setting [11]), 80.5 ± 1.05 µM; in data set [4] (setting [12]), 31 ± 4.17 µM; in data set [5] (setting [13]), 127 ± 4.24 µM; in data set [6] (setting [17]), 153 ± 8.73 µM. Moreover, the IC50 in data set [7] (setting [18]) amounted to 13.6 ± 0.6 µM.

As to `O=c1c(OC2O[C@H](CO)[C@@H](O)[C@H](O)[C@H]2O)c(-c2ccc(O)cc2)oc2cc(OC3O[C@H](CO)[C@@H](O)[C@H](O)[C@H]3O)c(OC3O[C@H](CO)[C@@H](O)[C@H](O)[C@H]3O)c(O)c12` (some centres unmarked) [A10, 6-hydroxykaempferol-3,6,7-tri-O-glucoside], the half-maximal inhibitory concentration (IC50) in data set [1] (microsomes) was above 200 µM; in data set [2] (microsomes), above 200 µM; in data set [3] (microsomes) it was 39.06 ± 0.09 µM; in data set [4] (microsomes), above 200 µM; in data set [5] (microsomes), above 200 µM; in data set [6] (microsomes), above 200 µM. In data set [7] (microsomes), this molecule came in with an IC50 above 200 µM.
